Assay results published in ChEMBL document CHEMBL1165855, “Guaiane sesquiterpenes from seaweed Ulva fasciata Delile and their antibacterial properties” (2010).
Values after ≈ are worked out from the molar mass of the structure shown.

Assays:
Type in all cases: functional
[1] = system: Vibrio parahaemolyticus; test: Antibacterial activity against Vibrio parahaemolyticus ATCC 17809 at 50 ug/ml after 24 hrs by disc-diffusion assay; settings: ATCC 17809, 24 h, read-out: DIZ
[2] = system: Vibrio parahaemolyticus; test: Antibacterial activity against Vibrio parahaemolyticus ATCC 17809 at 100 ug/ml after 24 hrs by disc-diffusion assay; settings: ATCC 17809, 24 h, read-out: DIZ
[3] = system: Vibrio parahaemolyticus; test: Antibacterial activity against Vibrio parahaemolyticus ATCC 17809 at 150 ug/ml after 24 hrs by disc-diffusion assay; settings: ATCC 17809, 24 h, read-out: DIZ
[4] = system: Vibrio parahaemolyticus; test: Antibacterial activity against Vibrio parahaemolyticus ATCC 17809 after 24 hrs by broth microdilution assay; settings: ATCC 17809, 24 h
[5] = system: Vibrio harveyi; test: Antibacterial activity against Vibrio harveyi MTCC 3438 at 50 ug/ml after 24 hrs by disc-diffusion assay; settings: MTCC 3438, 24 h, read-out: DIZ
[6] = system: Vibrio harveyi; test: Antibacterial activity against Vibrio harveyi MTCC 3438 at 100 ug/ml after 24 hrs by disc-diffusion assay; settings: MTCC 3438, 24 h, read-out: DIZ
[7] = system: Vibrio harveyi; test: Antibacterial activity against Vibrio harveyi MTCC 3438 at 150 ug/ml after 24 hrs by disc-diffusion assay; settings: MTCC 3438, 24 h, read-out: DIZ
[8] = system: Vibrio harveyi; test: Antibacterial activity against Vibrio harveyi MTCC 3438 after 24 hrs by broth microdilution assay; settings: MTCC 3438, 24 h
[9] = system: Vibrio vulnificus; test: Antibacterial activity against Vibrio vulnificus MTCC 1145 at 50 ug/ml after 24 hrs by disc-diffusion assay; settings: MTCC 1145, 24 h, read-out: DIZ
[10] = system: Vibrio vulnificus; test: Antibacterial activity against Vibrio vulnificus MTCC 1145 at 100 ug/ml after 24 hrs by disc-diffusion assay; settings: MTCC 1145, 24 h, read-out: DIZ
[11] = system: Vibrio vulnificus; test: Antibacterial activity against Vibrio vulnificus MTCC 1145 at 150 ug/ml after 24 hrs by disc-diffusion assay; settings: MTCC 1145, 24 h, read-out: DIZ
[12] = system: Vibrio vulnificus; test: Antibacterial activity against Vibrio vulnificus MTCC 1145 after 24 hrs by broth microdilution assay; settings: MTCC 1145, 24 h

SMILES	zone of inhibition at 50 µg/mL [1]	zone of inhibition at 100 µg/mL [2]	zone of inhibition at 150 µg/mL [3]	MIC [4]	zone of inhibition at 50 µg/mL [5]	zone of inhibition at 100 µg/mL [6]	zone of inhibition at 150 µg/mL [7]	MIC [8]	zone of inhibition at 50 µg/mL [9]	zone of inhibition at 100 µg/mL [10]	zone of inhibition at 150 µg/mL [11]	MIC [12]
CC[C@H]1CCC[C@@](C)(COC(C)=O)[C@H]2C=C[C@H](C)[C@@H]12	15.3 mm	15.8 mm	16.6 mm	25 µg/mL (≈ 94.6 µM)	11.7 mm	12.3 mm	12.6 mm	30 µg/mL (≈ 113 µM)	14.1 mm	14.9 mm	15.1 mm	25 µg/mL (≈ 94.6 µM)
CC[C@H]1CCC[C@@](C)(CO)[C@H]2C=C[C@H](C)[C@@H]12	12.7 mm	12.9 mm	13.2 mm	35 µg/mL (≈ 157 µM)	10.6 mm	11.7 mm	12.9 mm	50 µg/mL (≈ 225 µM)	11.7 mm	12 mm	12.4 mm	40 µg/mL (≈ 180 µM)
CC(C)[C@H]1CCC[C@@](C)(O)[C@H]2C=C[C@H](C)[C@@H]12	6.83 mm	6.92 mm	7.28 mm	110 µg/mL (≈ 495 µM)	6.54 mm	6.58 mm	6.6 mm	160 µg/mL (≈ 720 µM)	7.15 mm	7.3 mm	7.85 mm	125 µg/mL (≈ 562 µM)
